In US4087613A, “1,3,5- Or 1,3,6-naphthalenetriyltris(sulfonylimino)aryl acids and salts” (American Cyanamid Company, priority 1977, dated 1978):
Where a name gives a salt, the structure may show the parent alone.

Legend:
[1] = test system: late components of human complement (C3-C9); experiment: Test, Code 035 (C3-C9 inhibitor): lysis of EAC 142 by late components of human complement; format: biochemical; design: key: Negative; conditions: serial two-fold dilution assay; higher well number indicates higher activity
Text: (§1) An active inhibitor protects C2 from C1 and C4; (ii) Test, Code 035 (C3-C9 inhibitor) -- This test determines the ability of the late components of human complement (C3-C9) to lyse EAC 142 in the presence of appropriate dilutions of the test compound. An active inhibitor protects EAC 142 from lysis by human C3-C9; (iii) Test, Code 036 (C-Shunt inhibitor) -- In this test human erythrocytes rendered fragile are lysed in autologous serum via the shunt pathway activated by cobra venom factor in the presence of appropriate dilutions of the test compound. Inhibition of the shunt pathway results in failure of lysis; (iv) Forssman Vasculitis Test -- Here, the well known complement dependent lesion, Forssman vasculitis, is produced in guinea pigs by intradermal injection of rabbit anti-Forssman antiserum. The lesion is measured in terms of diameter, edema and hemorrhage and the extent to which a combined index of these is inhibited by prior intraperitoneal injection of the test compound at 200 mg/kg is then reported, unless otherwise stated; (v) Forssman Shock Test -- Lethal shock is produced in guinea pigs by an i.v. injection of anti-Forssman antiserum and the harmonic mean death time of treated guinea pigs is compared with that of simultaneous controls; (vi) Complement Level Reduction Test -- In this test, the above dosed guinea pigs, or others, are bled for serum and the complement level is determined in undiluted serum by the capillary tube method of U.S. Pat. No. 3,876,376 and compared to undosed control guinea pigs; and (vii) Cap 50 Test -- Here, appropriate amounts of the test compound are added to a pool of guinea pig serum in vitro, after which the undiluted serum capillary tube assay referred to above is run. The concentration of compound inhibiting 50% is reported.
(§2) **Activity in wells a serial dilution assay. Higher well number indicates
(§3) higher activity. The serial dilutions are two-fold.

[2] = test system: whole complement; experiment: Complement Level Reduction Test: whole complement in serum of dosed guinea pigs, capillary tube assay; format: in vivo; conditions: 200 mg/kg
Text: as §1
With reference to Table I, guinea pigs weighing about 300 g were dosed intravenously (i.v.) or intraperitoneally (i.p.) with 200 mg/kg of the test compound dissolved in saline and adjusted to pH 7-8. […] The serum was tested for whole complement using the capillary tube assay. Percent inhibition was calculated by comparison with simultaneous controls. The results appear in Table I together with results of tests, code 026, 035, 036, Cap 50, % inhibition and Forssman shock.

[3] = test system: complement system; conditions: literature report; cited from earlier work
[4] = target: T1, activated human C1 (Homo sapiens, UniProt P09871); experiment: Test, Code 026 (C1 inhibitor): protection of human C2 from activated human C1 and C4; format: biochemical; conditions: serial two-fold dilution assay; higher well number indicates higher activity
T1 construct: fluid-phase human C2 substrate in presence of C4
Text: as §1, §2, §3

[5] = test system: shunt pathway; experiment: Test, Code 036 (C-Shunt inhibitor): lysis of human erythrocytes via the shunt pathway activated by cobra venom factor; format: biochemical; design: key: Negative; conditions: serial two-fold dilution assay; higher well number indicates higher activity
Text: as §1, §2, §3

[6] = test system: hereditary angioneurotic edema; conditions: The New England Journal of Medicine, 286, 808-812 (1972); cited from earlier work

T1 sequence (P09871 16-688): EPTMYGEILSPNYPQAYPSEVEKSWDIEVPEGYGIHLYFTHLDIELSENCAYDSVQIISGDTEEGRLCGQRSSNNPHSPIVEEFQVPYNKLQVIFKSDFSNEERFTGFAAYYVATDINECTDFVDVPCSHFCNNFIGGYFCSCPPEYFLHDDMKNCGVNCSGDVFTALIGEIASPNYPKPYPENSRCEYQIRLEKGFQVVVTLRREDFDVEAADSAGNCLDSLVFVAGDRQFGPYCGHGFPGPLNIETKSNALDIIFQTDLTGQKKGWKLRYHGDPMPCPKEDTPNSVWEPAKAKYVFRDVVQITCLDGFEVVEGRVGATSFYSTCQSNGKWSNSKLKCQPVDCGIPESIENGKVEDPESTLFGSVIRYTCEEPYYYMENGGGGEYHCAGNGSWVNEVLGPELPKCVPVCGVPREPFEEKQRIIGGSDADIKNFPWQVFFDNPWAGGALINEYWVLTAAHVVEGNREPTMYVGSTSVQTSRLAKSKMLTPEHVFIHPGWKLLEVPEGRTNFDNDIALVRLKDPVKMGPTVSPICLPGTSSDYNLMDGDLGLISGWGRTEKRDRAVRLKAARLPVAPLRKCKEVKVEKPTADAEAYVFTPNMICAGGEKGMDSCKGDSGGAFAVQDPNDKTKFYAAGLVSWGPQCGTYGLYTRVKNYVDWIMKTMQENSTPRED
T1 sequence (P00736 18-705 partner): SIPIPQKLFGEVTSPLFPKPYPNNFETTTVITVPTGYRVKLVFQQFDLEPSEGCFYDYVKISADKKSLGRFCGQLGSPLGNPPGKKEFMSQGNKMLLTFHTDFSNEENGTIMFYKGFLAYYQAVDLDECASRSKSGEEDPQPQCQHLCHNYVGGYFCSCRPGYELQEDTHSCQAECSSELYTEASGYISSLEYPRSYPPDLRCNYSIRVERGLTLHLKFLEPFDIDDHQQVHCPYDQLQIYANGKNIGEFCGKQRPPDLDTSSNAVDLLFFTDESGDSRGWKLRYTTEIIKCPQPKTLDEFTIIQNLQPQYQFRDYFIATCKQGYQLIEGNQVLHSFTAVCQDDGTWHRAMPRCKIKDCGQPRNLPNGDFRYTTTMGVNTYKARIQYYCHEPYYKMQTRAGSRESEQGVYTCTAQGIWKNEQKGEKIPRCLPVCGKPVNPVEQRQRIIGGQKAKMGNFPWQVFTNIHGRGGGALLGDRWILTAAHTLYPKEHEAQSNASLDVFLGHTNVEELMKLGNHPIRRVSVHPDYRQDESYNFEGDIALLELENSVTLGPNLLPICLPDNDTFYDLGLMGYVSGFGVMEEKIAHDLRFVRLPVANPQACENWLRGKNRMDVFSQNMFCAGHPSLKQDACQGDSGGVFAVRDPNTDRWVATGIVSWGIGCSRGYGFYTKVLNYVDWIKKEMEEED
T1 sequence (P02745 23-245 partner): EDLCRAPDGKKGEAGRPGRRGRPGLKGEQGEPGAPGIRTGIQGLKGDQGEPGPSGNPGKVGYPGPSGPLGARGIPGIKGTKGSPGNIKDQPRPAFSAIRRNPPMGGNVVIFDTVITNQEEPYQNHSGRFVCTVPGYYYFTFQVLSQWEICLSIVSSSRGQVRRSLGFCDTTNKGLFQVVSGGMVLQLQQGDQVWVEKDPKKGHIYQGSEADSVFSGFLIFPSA
T1 sequence (P02746 28-253 partner): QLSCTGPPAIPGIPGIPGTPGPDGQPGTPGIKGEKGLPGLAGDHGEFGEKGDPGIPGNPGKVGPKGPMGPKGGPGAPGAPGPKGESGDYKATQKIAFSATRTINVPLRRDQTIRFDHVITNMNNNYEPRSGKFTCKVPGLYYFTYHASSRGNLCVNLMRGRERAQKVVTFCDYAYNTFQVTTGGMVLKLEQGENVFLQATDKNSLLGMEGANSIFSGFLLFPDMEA
T1 sequence (P02747 29-245 partner): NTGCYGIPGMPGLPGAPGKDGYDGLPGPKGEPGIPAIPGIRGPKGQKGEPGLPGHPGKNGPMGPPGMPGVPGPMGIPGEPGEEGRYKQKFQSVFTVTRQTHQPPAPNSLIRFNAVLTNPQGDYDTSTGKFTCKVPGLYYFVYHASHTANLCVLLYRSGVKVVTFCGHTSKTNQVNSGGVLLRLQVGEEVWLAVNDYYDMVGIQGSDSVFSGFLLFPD

O=C([O-])c1cc(NS(=O)(=O)c2ccc3c(S(=O)(=O)Nc4cc(C(=O)[O-])cc(C(=O)[O-])c4)cc(S(=O)(=O)Nc4cc(C(=O)[O-])cc(C(=O)[O-])c4)cc3c2)cc(C(=O)[O-])c1.[Na+].[Na+].[Na+].[Na+].[Na+].[Na+] [5,5',5"-[1,3,6-Naphthalenetriyltris(sulfonylimino)]triisophthalic acid hexasodium salt]
C-Late 035 Wells [1]: N
In Vivo Activity (Guinea Pig) % Inhibition, Intraperitoneal, 30 minutes [2]: -67%
In Vivo Activity (Guinea Pig) % Inhibition, Intraperitoneal, 60 minutes [2]: -79%
In Vivo Activity (Guinea Pig) % Inhibition, Intraperitoneal, 120 minutes [2]: -84%

heparin
anticomplementary / complement inhibiting effect [3]: anticomplementary effect

CN(c1cc(C(=O)O)cc(C(=O)O)c1)S(=O)(=O)c1ccc2c(S(=O)(=O)N(C)c3cc(C(=O)O)cc(C(=O)O)c3)cc(S(=O)(=O)N(C)c3cc(C(=O)O)cc(C(=O)O)c3)cc2c1 [5,5',5"-[1,3,6-Naphthalenetriyltris(sulfonylmethylimino)]triisophthalic acid hexasodium salt]
C1 026 Wells [4]: +3 wells
C-Late 035 Wells [1]: N
Shunt Inhibition 036 Wells [5]: N

O=C([O-])c1ccc(NS(=O)(=O)c2ccc3c(S(=O)(=O)Nc4ccc(C(=O)[O-])cc4)cc(S(=O)(=O)Nc4ccc(C(=O)[O-])cc4)cc3c2)cc1.[Na+].[Na+].[Na+] [4,4',4"-[1,3,6-Naphthalenetriyltris(sulfonylimino)]tribenzoic acid trisodium salt]
C-Late 035 Wells [1]: N
Shunt Inhibition 036 Wells [5]: N

NCCCCCC(=O)O [epsilon-aminocaproic acid]
use in the treatment of hereditary angioneurotic edema [6]: used with success

O=C([O-])c1cccc(NS(=O)(=O)c2ccc3c(S(=O)(=O)Nc4cccc(C(=O)[O-])c4)cc(S(=O)(=O)Nc4cccc(C(=O)[O-])c4)cc3c2)c1.[Na+].[Na+].[Na+] [3,3',3"-[1,3,6-Naphthalenetriyltris(sulfonylimino)]tribenzoic acid trisodium salt]
C1 026 Wells [4]: +3 wells
C-Late 035 Wells [1]: N
Shunt Inhibition 036 Wells [5]: N

O=C([O-])c1cc(NS(=O)(=O)c2ccc3c(S(=O)(=O)Nc4cc(C(=O)[O-])c(C(=O)[O-])c(C(=O)[O-])c4)cc(S(=O)(=O)Nc4cc(C(=O)[O-])c(C(=O)[O-])c(C(=O)[O-])c4)cc3c2)cc(C(=O)[O-])c1C(=O)[O-].[Na+].[Na+].[Na+].[Na+].[Na+].[Na+].[Na+].[Na+].[Na+] [5,5',5"-[1,3,6-Naphthalenetriyltris(sulfonylimino)]tri-1,2,3-benzenetricarboxylic acid nonasodium salt]
C1 026 Wells [4]: +8 wells
In Vivo Activity (Guinea Pig) % Inhibition, Intraperitoneal, 30 minutes [2]: -63%
In Vivo Activity (Guinea Pig) % Inhibition, Intraperitoneal, 60 minutes [2]: -71%
In Vivo Activity (Guinea Pig) % Inhibition, Intraperitoneal, 120 minutes [2]: -71%

O=C(O)c1cc(NS(=O)(=O)c2ccc3c(S(=O)(=O)Nc4ccc(O)c(C(=O)O)c4)cc(S(=O)(=O)Nc4ccc(O)c(C(=O)O)c4)cc3c2)ccc1O [3,3',3"-[1,3,6-Naphthalenetriyltris(sulfonylimino)]tris[6-hydroxybenzoic acid]]
C1 026 Wells [4]: +1 wells
C-Late 035 Wells [1]: N
Shunt Inhibition 036 Wells [5]: N

Nc1ccc2cc(S(=O)(=O)O)cc(O)c2c1N=Nc1ccc(NC(=O)Nc2ccc(N=Nc3c(N)ccc4cc(S(=O)(=O)O)cc(O)c34)c(S(=O)(=O)O)c2)cc1S(=O)(=O)O [chlorazol fast pink, 3,3'-ureylenebis-[6-(2-amino-8-hydroxy-6-sulfo-1-naphthylazo)]benzenesulfonic acid, tetrasodium salt]
anticomplementary / complement inhibiting effect [3]: anticomplementary effect

8-(3-benzamido-4-methylbenzamido)naphthalene-1,3,5-trisulfonic acid [Suramin]
anticomplementary / complement inhibiting effect [3]: competitive inhibitor of the complement system
use in the treatment of hereditary angioneurotic edema [6]: used with success

O=C(O)c1cc(NS(=O)(=O)c2ccc3c(S(=O)(=O)Nc4cc(C(=O)O)c(O)c(C(=O)O)c4)cc(S(=O)(=O)Nc4cc(C(=O)O)c(O)c(C(=O)O)c4)cc3c2)cc(C(=O)O)c1O [5,5',5"-[1,3,6-Naphthalenetriyltris(sulfonylimino)]-tris[2-hydroxyisophthalic acid]]
C1 026 Wells [4]: +5 wells
C-Late 035 Wells [1]: +1 wells
Shunt Inhibition 036 Wells [5]: +4 wells
In Vivo Activity (Guinea Pig) % Inhibition, Intraperitoneal, 30 minutes [2]: -69%
In Vivo Activity (Guinea Pig) % Inhibition, Intraperitoneal, 60 minutes [2]: -59%
In Vivo Activity (Guinea Pig) % Inhibition, Intraperitoneal, 120 minutes [2]: -58%

NC[C@H]1CC[C@H](C(=O)O)CC1 [tranexamic acid]
use in the treatment of hereditary angioneurotic edema [6]: used with success

O=C(O)c1cc(NS(=O)(=O)c2ccc3c(S(=O)(=O)Nc4cc(C(=O)O)cc(C(=O)O)c4)cc(S(=O)(=O)Nc4cc(C(=O)O)cc(C(=O)O)c4)cc3c2)cc(C(=O)O)c1 [5,5',5"-[1,3,6-Naphthalenetriyltris(sulfonyliminol)]triisophthalic acid]
C1 026 Wells [4]: +6 wells
C-Late 035 Wells [1]: N
Shunt Inhibition 036 Wells [5]: +2 wells
In Vivo Activity (Guinea Pig) % Inhibition, Intraperitoneal, 30 minutes [2]: -84%
In Vivo Activity (Guinea Pig) % Inhibition, Intraperitoneal, 60 minutes [2]: -88%
In Vivo Activity (Guinea Pig) % Inhibition, Intraperitoneal, 120 minutes [2]: -96%
